Laboratory results taken from the supplement of paper PMC10331698.
± gives the standard deviation of the averaged measurements.

Experiments:
Assay in all cases: level (log10 ratio to DMSO vehicle control); higher = higher biomarker level / cell amount than vehicle control
Methotrexate = compound: CN(Cc1cnc2nc(N)nc(N)c2n1)c1ccc(C(=O)N[C@@H](CCC(=O)O)C(=O)O)cc1 [Methotrexate]; conditions: in DMSO
Experimental: (§1)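 BioMAP Diversity Plus panel of 12 human primary cell co-culture systems (3C, 4H, LPS, SAg, BT, BF4T, BE3C, CASM3C, HDF3CGF, KF3CT, MyoF, Mphg). Compounds were added 1 h before stimulation and left for 24 h (MyoF 48 h; BT 72 h for soluble read-outs or 6 d for IgG). Biomarkers were read by ELISA, cytotoxicity by SRB, PBMC viability and proliferation by Alamar Blue. Each well value was divided by the mean of 8 DMSO control wells on the same plate and log10 transformed; duplicate blinded samples were tested at 4 concentrations.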

Perfluoropinacol = compound: OC(C(F)(F)F)(C(F)(F)F)C(O)(C(F)(F)F)C(F)(F)F [Perfluoropinacol]; conditions: in DMSO
Experimental: as §1

[1] = compound: O=C(Cl)C(F)(F)C(F)(F)C(F)(F)C(=O)Cl [Hexafluoroglutaryl chloride]; conditions: in DMSO
Experimental: as §1

[2] = compound: OCC(F)(F)C(F)(F)C(F)(F)C(F)(F)C(F)(F)C(F)(F)F [6:1 Fluorotelomer alcohol]; conditions: in DMSO
Experimental: as §1

[3] = compound: FC(F)(I)C(F)(F)C(F)(F)C(F)(F)C(F)(F)C(F)(F)I [1,6-Diiodoperfluorohexane]; conditions: 6700 nM; in DMSO
Experimental: as §1

Tetrafluorosuccinic acid = compound: O=C(O)C(F)(F)C(F)(F)C(=O)O [Tetrafluorosuccinic acid]; conditions: in DMSO
Experimental: as §1

[4] = compound: O=S(=O)(O)CCC(F)(F)C(F)(F)C(F)(F)C(F)(F)F [4:2 Fluorotelomer sulfonic acid]; conditions: in DMSO
Experimental: as §1

Test System	level (log10) (Methotrexate; 1500 nM)	level (log10) (Methotrexate; 4400 nM)	level (log10) (Methotrexate; 13000 nM)	level (log10) (Methotrexate; 40000 nM)	level (log10) (Perfluoropinacol; 6700 nM)	level (log10) (Perfluoropinacol; 20000 nM)	level (log10) ([1]; 6700 nM)	level (log10) ([1]; 20000 nM)	level (log10) ([1]; 60000 nM)	level (log10) ([2]; 6700 nM)	level (log10) ([2]; 20000 nM)	level (log10) ([2]; 60000 nM)	level (log10) [3]	level (log10) (Tetrafluorosuccinic acid; 6700 nM)	level (log10) (Tetrafluorosuccinic acid; 20000 nM)	level (log10) (Tetrafluorosuccinic acid; 60000 nM)	level (log10) ([4]; 6700 nM)	level (log10) ([4]; 20000 nM)	level (log10) ([4]; 60000 nM)
3C:CCL2/MCP-1	0.0505 ± 0.0064	-0.013 ± 0.027	0.0065 ± 0.0078	0.028 ± 0.028	0.092 ± 0.013	0.0445 ± 0.012	0.009 ± 0.0028	-0.0105 ± 0.035	0.009 ± 0.065	-0.005 ± 0.011	-0.005 ± 0.0014	-0.007 ± 0.033	0.01	-0.0065 ± 0.016	-0.006 ± 0.0028	0.0005 ± 0.0064	0.0035 ± 0.023	0.003 ± 0.054	0.0065 ± 0.025
3C:CD54/ICAM-1	0.0065 ± 0.0064	-0.0085 ± 0.005	0.0045 ± 0.013	-0.002 ± 0.0085	0.0055 ± 0.0021	-0.0005 ± 0.021	0.002 ± 0.0014	-0.006 ± 0.013	0.0025 ± 0.035	0.004	-0.001 ± 0.0071	-0.0815 ± 0.12	0.03	-0.0015 ± 0.0092	-0.016 ± 0.011	0.001 ± 0.0028	0.001 ± 0.0014	-0.0125 ± 0.0021	0.0045 ± 0.012
3C:CD62E/E-Selectin	0.007 ± 0.0057	-0.0145 ± 0.0035	-0.004 ± 0.02	0.01 ± 0.011	-0.007 ± 0.013	-0.0605 ± 0.03	-0.0315 ± 0.049	-0.02 ± 0.038	-0.0025 ± 0.012	-0.001 ± 0.0099	-0.011 ± 0.0085	0.0125 ± 0.0078	0.005	-0.0015 ± 0.016	-0.0155 ± 0.0064	-0.01 ± 0.0099	-0.019 ± 0.011	-0.0035 ± 0.019	0.0045 ± 0.018
3C:CD106/VCAM-1	-0.0115 ± 0.044	-0.005 ± 0.021	0.0055 ± 0.035	-0.0135 ± 0.026	-0.006 ± 0.02	-0.0385 ± 0.018	-0.03 ± 0.021	-0.028 ± 0.035	-0.018 ± 0.02	0.006 ± 0.0071	0.013 ± 0.013	0.011 ± 0.021	-0.043	-0.015 ± 0.014	-0.015 ± 0.011	-0.0105 ± 0.018	-0.022 ± 0.028	0.006 ± 0.024	0.005 ± 0.021
3C:CD141/Thrombomodulin	-0.024 ± 0.0085	-0.016 ± 0.0057	-0.0235 ± 0.067	-0.0265 ± 0.019	-0.0165 ± 0.0021	-0.033 ± 0.034	-0.0455 ± 0.013	-0.0275 ± 0.0078	-0.056 ± 0.057	-0.0155 ± 0.018	-0.0285 ± 0.0092	-0.005 ± 0.02	-0.003	-0.0285 ± 0.039	-0.048 ± 0.024	-0.038 ± 0.0085	-0.014 ± 0.0028	-0.005 ± 0.013	-0.013 ± 0.044
3C:CD142/Tissue Factor	-0.0325 ± 0.042	-0.0135 ± 0.033	-0.0175 ± 0.081	-0.005 ± 0.061	-0.0805 ± 0.026	-0.158 ± 0.0035	-0.04 ± 0.042	-0.0435 ± 0.0092	-0.07 ± 0.092	-0.007 ± 0.0014	0.004 ± 0.014	0.0005 ± 0.026	-0.001	0.001 ± 0.042	0.0025 ± 0.0064	0.006 ± 0.023	-0.007 ± 0.044	0.0225 ± 0.011	0.024 ± 0.025
BE3C:Keratin 8/18	-0.0105 ± 0.047	-0.035 ± 0.042	-0.022 ± 0.057	-0.024 ± 0.025	-0.0145 ± 0.00071	-0.019 ± 0.0028	0.0005 ± 0.005	-0.0195 ± 0.0078	-0.0135 ± 0.022	0.0055 ± 0.036	-0.0035 ± 0.057	-0.0125 ± 0.071	-0.018	0.0225 ± 0.012	0.009 ± 0.013	0.0165 ± 0.00071	0.0065 ± 0.0021	-0.002 ± 0.0014	0.0005 ± 0.0035
BE3C:MMP-1	-0.028 ± 0.024	-0.011 ± 0.044	0.034 ± 0.016	0.031 ± 0.014	0.0275 ± 0.0021	-0.003 ± 0.0057	-0.001 ± 0.014	-0.008 ± 0.014	0.0065 ± 0.016	-0.0115 ± 0.016	0 ± 0.0014	0.042 ± 0.013	0.014	-0.0025 ± 0.011	-0.0125 ± 0.0078	0.032 ± 0.038	0.002 ± 0.0014	-0.0035 ± 0.0035	0.038 ± 0.057
BE3C:MMP-9	0.014 ± 0.021	-0.0025 ± 0.011	0.0045 ± 0.079	0.0085 ± 0.015	-0.011 ± 0.0014	-0.04 ± 0.0028	-0.0005 ± 0.00071	-0.003 ± 0.018	-0.0325 ± 0.042	-0.0045 ± 0.037	-0.0065 ± 0.019	0.0155 ± 0.021	-0.008	-0.014 ± 0.027	-0.0035 ± 0.011	-0.005 ± 0.0028	-0.0055 ± 0.005	-0.0045 ± 0.018	0.0135 ± 0.0092
BE3C:PAI-I	-0.0595 ± 0.015	-0.031 ± 0.045	-0.051 ± 0.048	-0.0665 ± 0.084	-0.119 ± 0.016	-0.189 ± 0.0085	-0.0285 ± 0.053	-0.0715 ± 0.059	-0.0935 ± 0.094	-0.0235 ± 0.0092	-0.007 ± 0.0014	0.026 ± 0.011	0.015	-0.011 ± 0.0071	0.002 ± 0.018	-0.001 ± 0.023	-0.0075 ± 0.0035	-0.014 ± 0.0085	-0.008 ± 0.017
BE3C:SRB	-0.0035 ± 0.0064	-0.009 ± 0.0014	-0.0025 ± 0.00071	0.001 ± 0.014	-0.0115 ± 0.0035	-0.0285 ± 0.00071	0.0045 ± 0.0092	0.0065 ± 0.013	0.0115 ± 0.0035	-0.0015 ± 0.005	-0.0055 ± 0.0021	0.002 ± 0.011	-0.005	-0.0045 ± 0.005	-0.0045 ± 0.0064	-0.001 ± 0.0028	0.0015 ± 0.00071	-0.007 ± 0.0085	0.0005 ± 0.0078
BE3C:tPA	0.012 ± 0.0071	-0.004 ± 0.075	0.0085 ± 0.091	0.0215 ± 0.033	-0.0455 ± 0.0078	-0.224 ± 0.012	-0.005 ± 0.0014	-0.009 ± 0.014	-0.0075 ± 0.022	0.0055 ± 0.012	-0.0145 ± 0.019	-0.0075 ± 0.0021	-0.032	-0.037 ± 0.023	-0.0505 ± 0.026	-0.0365 ± 0.022	0.012 ± 0.013	-0.0315 ± 0.03	0.011 ± 0.05
BE3C:uPA	-0.013 ± 0.0028	-0.0315 ± 0.033	-0.0205 ± 0.052	-0.0015 ± 0.036	-0.0055 ± 0.005	-0.042 ± 0.011	-0.0015 ± 0.0064	-0.004 ± 0.0028	-0.0035 ± 0.0064	-0.0055 ± 0.0021	-0.005 ± 0.013	0.001 ± 0.0014	-0.002	-0.007 ± 0.0057	-0.016 ± 0.021	-0.003 ± 0.013	-0.001 ± 0.014	0 ± 0.0057	-0.0035 ± 0.0092
